From patent publication US20230257396A1, “MACROCYCLES AND THEIR USE” (BLOSSOMHILL THERAPEUTICS, INC., priority 2020, published 2023)

Experiments:
Assay in all cases: KINOMEscan kinase binding assay (Eurofins/DiscoveRx), % Ctrl
kinases [1] = biological target: T1, kinases (Homo sapiens, UniProt P00519, M351T); details: 1 μM; ABL1(M351T)-phosphorylated
T1 construct: purchased Eurofins/DiscoveRx; host or cells: E. coli BL21-derived host (T7 phage display) for most kinases; HEK-293 for the rest
How it was run: (§1)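 Competition binding, 1 h RT: phage-tagged or HEK-293-expressed DNA-tagged kinase + immobilized ligand + compound. Eluate kinase by qPCR. % Ctrl = (test − positive ctrl)/(negative ctrl − positive ctrl) × 100; lower means stronger binding.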

kinases [2] = biological target: T2, kinases (Homo sapiens, UniProt P00533); details: 1 μM; EGFR
T2 construct: purchased Eurofins/DiscoveRx; host or cells: E. coli BL21-derived host (T7 phage display) for most kinases; HEK-293 for the rest
T2 sequence (P00533 25-1210): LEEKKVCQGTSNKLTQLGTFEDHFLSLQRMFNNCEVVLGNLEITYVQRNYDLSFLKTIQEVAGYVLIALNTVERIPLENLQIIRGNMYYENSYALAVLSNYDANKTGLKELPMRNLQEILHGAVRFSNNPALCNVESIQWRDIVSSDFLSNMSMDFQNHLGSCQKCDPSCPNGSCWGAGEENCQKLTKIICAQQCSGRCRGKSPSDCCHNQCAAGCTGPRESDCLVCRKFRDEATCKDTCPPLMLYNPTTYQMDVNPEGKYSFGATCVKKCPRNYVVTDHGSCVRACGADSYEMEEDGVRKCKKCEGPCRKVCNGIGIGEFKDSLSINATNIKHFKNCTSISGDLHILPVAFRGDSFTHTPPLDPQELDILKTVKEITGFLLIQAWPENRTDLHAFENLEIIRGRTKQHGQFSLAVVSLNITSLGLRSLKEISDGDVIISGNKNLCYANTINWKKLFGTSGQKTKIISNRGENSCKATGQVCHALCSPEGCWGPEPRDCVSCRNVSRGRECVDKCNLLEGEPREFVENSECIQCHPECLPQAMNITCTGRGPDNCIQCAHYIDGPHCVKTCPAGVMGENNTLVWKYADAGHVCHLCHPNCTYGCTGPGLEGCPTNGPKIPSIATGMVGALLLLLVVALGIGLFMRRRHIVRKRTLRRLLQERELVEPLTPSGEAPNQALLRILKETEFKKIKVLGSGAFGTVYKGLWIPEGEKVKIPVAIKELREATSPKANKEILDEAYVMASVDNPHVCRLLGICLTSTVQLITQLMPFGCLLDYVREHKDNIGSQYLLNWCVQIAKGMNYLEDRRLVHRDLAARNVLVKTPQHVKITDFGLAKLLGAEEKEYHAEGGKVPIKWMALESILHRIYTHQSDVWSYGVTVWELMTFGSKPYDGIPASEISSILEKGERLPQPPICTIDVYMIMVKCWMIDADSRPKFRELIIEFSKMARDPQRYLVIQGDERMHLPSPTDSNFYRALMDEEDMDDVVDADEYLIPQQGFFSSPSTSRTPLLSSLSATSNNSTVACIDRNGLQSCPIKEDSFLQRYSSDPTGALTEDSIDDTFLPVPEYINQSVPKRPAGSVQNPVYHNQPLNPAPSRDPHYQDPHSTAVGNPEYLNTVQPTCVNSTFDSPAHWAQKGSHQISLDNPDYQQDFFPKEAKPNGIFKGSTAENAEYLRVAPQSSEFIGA
How it was run: as §1

kinases [3] = biological target: T3, kinases (Homo sapiens, UniProt P07949); details: 1 μM; RET
T3 construct: purchased Eurofins/DiscoveRx; host or cells: E. coli BL21-derived host (T7 phage display) for most kinases; HEK-293 for the rest
T3 sequence (P07949 29-1114): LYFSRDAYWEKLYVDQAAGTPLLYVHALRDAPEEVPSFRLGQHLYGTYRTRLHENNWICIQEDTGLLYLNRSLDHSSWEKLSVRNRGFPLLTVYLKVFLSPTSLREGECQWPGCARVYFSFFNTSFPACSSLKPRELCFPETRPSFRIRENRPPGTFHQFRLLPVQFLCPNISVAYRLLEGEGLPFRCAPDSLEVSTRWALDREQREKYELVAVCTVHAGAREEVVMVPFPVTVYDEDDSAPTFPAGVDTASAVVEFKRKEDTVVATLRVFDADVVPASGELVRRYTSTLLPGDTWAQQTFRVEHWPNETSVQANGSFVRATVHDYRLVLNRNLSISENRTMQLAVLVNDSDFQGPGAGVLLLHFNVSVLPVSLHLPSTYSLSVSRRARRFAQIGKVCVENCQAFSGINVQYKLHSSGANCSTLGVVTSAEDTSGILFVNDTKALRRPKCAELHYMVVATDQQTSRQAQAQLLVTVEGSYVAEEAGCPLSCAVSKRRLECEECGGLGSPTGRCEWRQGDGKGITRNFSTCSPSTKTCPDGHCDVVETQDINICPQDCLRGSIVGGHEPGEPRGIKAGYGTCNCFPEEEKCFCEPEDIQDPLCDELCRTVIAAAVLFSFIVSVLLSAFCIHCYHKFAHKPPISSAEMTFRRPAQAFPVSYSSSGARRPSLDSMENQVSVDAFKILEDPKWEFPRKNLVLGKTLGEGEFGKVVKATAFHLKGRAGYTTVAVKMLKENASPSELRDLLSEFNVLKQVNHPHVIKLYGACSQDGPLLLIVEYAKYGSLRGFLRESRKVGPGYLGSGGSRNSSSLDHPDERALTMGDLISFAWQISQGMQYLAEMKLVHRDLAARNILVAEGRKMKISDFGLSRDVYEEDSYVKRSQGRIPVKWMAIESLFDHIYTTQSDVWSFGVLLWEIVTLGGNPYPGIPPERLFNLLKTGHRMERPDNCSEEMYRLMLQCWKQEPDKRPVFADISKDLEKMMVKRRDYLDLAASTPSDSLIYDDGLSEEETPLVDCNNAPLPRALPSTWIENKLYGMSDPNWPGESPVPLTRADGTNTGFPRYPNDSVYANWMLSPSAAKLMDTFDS
How it was run: as §1

kinases [4] = biological target: T4, kinases (Homo sapiens, UniProt P07949, M918T); details: 1 μM; RET(M918T)
T4 construct: purchased Eurofins/DiscoveRx; host or cells: E. coli BL21-derived host (T7 phage display) for most kinases; HEK-293 for the rest
T4 sequence (P07949 29-1114 M918T): as the sequence (P07949 29-1114) above, with M890T counted along it
How it was run: as §1

kinases [5] = biological target: T5, kinases (Homo sapiens, UniProt P10721, A829P); details: 1 μM; KIT(A829P)
T5 construct: purchased Eurofins/DiscoveRx; host or cells: E. coli BL21-derived host (T7 phage display) for most kinases; HEK-293 for the rest
T5 sequence (P10721 26-976 A829P): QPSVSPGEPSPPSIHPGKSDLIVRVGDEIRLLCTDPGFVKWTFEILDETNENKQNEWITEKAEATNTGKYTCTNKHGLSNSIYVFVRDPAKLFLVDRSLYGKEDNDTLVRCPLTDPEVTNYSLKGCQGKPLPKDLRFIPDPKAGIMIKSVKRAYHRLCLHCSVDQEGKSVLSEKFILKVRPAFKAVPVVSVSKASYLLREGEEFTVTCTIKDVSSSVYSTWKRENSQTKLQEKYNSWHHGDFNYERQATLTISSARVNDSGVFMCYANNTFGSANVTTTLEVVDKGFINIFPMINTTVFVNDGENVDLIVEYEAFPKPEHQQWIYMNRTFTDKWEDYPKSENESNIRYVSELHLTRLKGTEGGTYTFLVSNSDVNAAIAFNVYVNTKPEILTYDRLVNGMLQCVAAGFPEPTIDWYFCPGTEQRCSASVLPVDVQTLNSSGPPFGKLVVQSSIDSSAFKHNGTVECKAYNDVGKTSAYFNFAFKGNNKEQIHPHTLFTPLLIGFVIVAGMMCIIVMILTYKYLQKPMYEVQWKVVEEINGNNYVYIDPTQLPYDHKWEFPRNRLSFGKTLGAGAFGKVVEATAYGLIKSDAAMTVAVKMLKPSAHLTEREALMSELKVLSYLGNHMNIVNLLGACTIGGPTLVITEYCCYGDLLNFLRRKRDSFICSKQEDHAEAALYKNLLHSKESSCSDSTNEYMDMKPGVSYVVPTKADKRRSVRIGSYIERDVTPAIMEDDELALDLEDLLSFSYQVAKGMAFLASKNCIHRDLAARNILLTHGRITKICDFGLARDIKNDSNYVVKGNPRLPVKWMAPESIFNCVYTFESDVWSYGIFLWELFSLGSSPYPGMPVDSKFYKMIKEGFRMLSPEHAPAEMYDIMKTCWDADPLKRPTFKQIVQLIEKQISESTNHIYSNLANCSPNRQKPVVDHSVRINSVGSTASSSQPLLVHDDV
How it was run: as §1

kinases [6] = biological target: T6, kinases (Homo sapiens, UniProt P10721, L576P); details: 1 μM; KIT(L576P)
T6 construct: purchased Eurofins/DiscoveRx; host or cells: E. coli BL21-derived host (T7 phage display) for most kinases; HEK-293 for the rest
T6 sequence (P10721 26-976 L576P): as the sequence (P10721 26-976 A829P) above, with L551P, P804A counted along it
How it was run: as §1

kinases [7] = biological target: T7, kinases (Homo sapiens, UniProt P10721, V559D); details: 1 μM; KIT(V559D)
T7 construct: purchased Eurofins/DiscoveRx; host or cells: E. coli BL21-derived host (T7 phage display) for most kinases; HEK-293 for the rest
T7 sequence (P10721 26-976 V559D): as the sequence (P10721 26-976 A829P) above, with V534D, P804A counted along it
How it was run: as §1

kinases [8] = biological target: T8, kinases (Homo sapiens, UniProt P36888, D835H); details: 1 μM; FLT3(D835H)
T8 construct: purchased Eurofins/DiscoveRx; host or cells: E. coli BL21-derived host (T7 phage display) for most kinases; HEK-293 for the rest
T8 sequence (P36888 27-993 D835H): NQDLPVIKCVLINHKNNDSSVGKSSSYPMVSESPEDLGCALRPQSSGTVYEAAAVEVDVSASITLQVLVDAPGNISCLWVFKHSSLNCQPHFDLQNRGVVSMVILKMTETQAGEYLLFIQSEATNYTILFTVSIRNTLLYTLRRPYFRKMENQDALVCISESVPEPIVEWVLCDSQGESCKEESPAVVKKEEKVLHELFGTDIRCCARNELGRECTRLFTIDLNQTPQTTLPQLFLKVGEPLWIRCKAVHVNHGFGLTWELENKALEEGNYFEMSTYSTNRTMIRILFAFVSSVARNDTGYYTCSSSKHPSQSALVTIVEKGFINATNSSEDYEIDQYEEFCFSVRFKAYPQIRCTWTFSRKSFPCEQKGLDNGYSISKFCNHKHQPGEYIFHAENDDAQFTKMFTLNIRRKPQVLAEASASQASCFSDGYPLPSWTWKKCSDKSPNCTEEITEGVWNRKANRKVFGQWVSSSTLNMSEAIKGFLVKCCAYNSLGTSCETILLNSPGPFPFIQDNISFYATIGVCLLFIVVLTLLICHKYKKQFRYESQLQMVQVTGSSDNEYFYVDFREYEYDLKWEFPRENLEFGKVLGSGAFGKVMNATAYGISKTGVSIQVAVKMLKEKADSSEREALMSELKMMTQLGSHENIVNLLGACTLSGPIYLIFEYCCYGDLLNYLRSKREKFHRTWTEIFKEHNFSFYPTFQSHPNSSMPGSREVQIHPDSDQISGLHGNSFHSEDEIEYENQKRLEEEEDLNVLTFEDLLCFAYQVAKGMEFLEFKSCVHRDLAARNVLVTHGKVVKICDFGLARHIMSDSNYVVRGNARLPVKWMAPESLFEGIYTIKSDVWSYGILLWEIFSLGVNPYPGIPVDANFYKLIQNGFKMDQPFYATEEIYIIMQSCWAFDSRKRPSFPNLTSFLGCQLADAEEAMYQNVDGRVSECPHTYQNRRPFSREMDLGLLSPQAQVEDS
How it was run: as §1

kinases [9] = biological target: T9, kinases (Homo sapiens, UniProt P42684); details: 1 μM; ABL2
T9 construct: purchased Eurofins/DiscoveRx; host or cells: E. coli BL21-derived host (T7 phage display) for most kinases; HEK-293 for the rest
T9 sequence (P42684 whole entry): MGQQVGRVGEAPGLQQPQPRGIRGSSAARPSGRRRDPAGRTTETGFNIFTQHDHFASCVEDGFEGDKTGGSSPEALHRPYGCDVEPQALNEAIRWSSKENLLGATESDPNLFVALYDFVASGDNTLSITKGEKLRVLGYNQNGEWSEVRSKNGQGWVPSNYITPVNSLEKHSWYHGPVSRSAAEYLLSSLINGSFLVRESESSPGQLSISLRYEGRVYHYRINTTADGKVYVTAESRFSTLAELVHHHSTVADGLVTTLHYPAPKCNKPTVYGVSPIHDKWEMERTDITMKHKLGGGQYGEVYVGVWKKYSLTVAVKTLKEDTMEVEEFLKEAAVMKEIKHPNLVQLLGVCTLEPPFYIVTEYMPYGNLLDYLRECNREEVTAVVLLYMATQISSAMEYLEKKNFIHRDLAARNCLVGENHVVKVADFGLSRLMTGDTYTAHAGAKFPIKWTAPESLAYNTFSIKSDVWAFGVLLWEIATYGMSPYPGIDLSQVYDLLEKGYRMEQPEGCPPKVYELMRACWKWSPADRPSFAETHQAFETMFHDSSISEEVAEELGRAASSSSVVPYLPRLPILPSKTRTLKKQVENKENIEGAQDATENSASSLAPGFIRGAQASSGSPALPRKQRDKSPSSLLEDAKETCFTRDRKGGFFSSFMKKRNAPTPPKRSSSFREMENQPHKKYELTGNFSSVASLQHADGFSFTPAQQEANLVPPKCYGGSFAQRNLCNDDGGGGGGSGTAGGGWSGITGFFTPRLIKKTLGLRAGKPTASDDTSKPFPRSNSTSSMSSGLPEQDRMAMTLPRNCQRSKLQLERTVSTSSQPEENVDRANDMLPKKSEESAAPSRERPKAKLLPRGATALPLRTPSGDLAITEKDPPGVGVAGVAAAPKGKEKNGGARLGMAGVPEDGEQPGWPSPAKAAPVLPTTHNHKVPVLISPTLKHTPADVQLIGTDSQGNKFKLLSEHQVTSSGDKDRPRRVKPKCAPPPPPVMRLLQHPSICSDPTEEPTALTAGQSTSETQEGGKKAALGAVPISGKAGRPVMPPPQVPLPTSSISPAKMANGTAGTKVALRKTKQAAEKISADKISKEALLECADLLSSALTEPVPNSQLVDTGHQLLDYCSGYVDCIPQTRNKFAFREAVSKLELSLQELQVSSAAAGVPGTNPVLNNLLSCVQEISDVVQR
How it was run: as §1

kinases [10] = details: 1 μM
How it was run: as §1

| SMILES | % Ctrl, ABL1(M351T)-phosphorylated (kinases [1]) | % Ctrl, EGFR (kinases [2]) | % Ctrl, RET (kinases [3]) | % Ctrl, RET(M918T) (kinases [4]) | % Ctrl, KIT(A829P) (kinases [5]) | % Ctrl, KIT(L576P) (kinases [6]) | % Ctrl, KIT(V559D) (kinases [7]) | % Ctrl, FLT3(D835H) (kinases [8]) | % Ctrl, ABL2 (kinases [9]) | % Ctrl, EGFR(L747-E749del, A750P) (kinases [10]) | % Ctrl, EGFR(L747-S752del, P753S) (kinases [10]) | % Ctrl, EGFR(L747-T751del, Sins) (kinases [10]) | % Ctrl, FLT3(ITD) (kinases [10]) | % Ctrl, FLT3(ITD, D835V) (kinases [10]) | % Ctrl, FLT3(ITD, F691L) (kinases [10]) |
| --- | --- | --- | --- | --- | --- | --- | --- | --- | --- | --- | --- | --- | --- | --- | --- |
| Cc1cc2c([nH]1)/C=C1\C(=O)Nc3ccc(cc31)-c1c(noc1C)COCCN(C)C2=O [Ex. 128, [3a(4)Z]-6,9,16-trimethyl-1,11-dihydro-2H,13H-1,17-(ethanediylidene)[1,4]oxazolo[4,3-m]dipyrrolo[3,2-f:3′,4′-i][1,4]oxazacyclopentadecine-3,8(5H,9H)-dione] | 39 % Ctrl | 91 % Ctrl | 83 % Ctrl | 93 % Ctrl | 86 % Ctrl | 100 % Ctrl | 93 % Ctrl | 23 % Ctrl | 91 % Ctrl | 85 % Ctrl | 93 % Ctrl | 94 % Ctrl | 43 % Ctrl | 5.8 % Ctrl | 10 % Ctrl |
| Cc1cc2c([nH]1)/C=C1\C(=O)Nc3ccc(cc31)OCCOCCNC2=O [Ex. 129, [16a(17)Z]-2-methyl-6,7,9,10-tetrahydro-1H-12,14-(ethanediylidene)dipyrrolo[3,2-i:3′,4′-l][1,4,7]dioxazacyclopentadecine-4,16(5H,15H)-dione] | 83 % Ctrl | 98 % Ctrl | 100 % Ctrl | 100 % Ctrl | 100 % Ctrl | 98 % Ctrl | 98 % Ctrl | 44 % Ctrl | 96 % Ctrl | 88 % Ctrl | 98 % Ctrl | 85 % Ctrl | 32 % Ctrl | 4.3 % Ctrl | 40 % Ctrl |
| Cc1cc2c([nH]1)/C=C1\C(=O)Nc3cc(Cl)c(cc31)OCCOCCN(C)C2=O [Ex. 131, [16a(17)Z]-19-chloro-2,5-dimethyl-6,7,9,10-tetrahydro-1H-12,14-(ethanediylidene)dipyrrolo[3,2-i:3′,4′-l][1,4,7]dioxazacyclopentadecine-4,16(5H,15H)-dione] | 0.2 % Ctrl | 52 % Ctrl | 0 % Ctrl | 0 % Ctrl | 4 % Ctrl | 0 % Ctrl | 0.15 % Ctrl | 0 % Ctrl | 1.8 % Ctrl | 31 % Ctrl | 50 % Ctrl | 59 % Ctrl | 0.85 % Ctrl | 0 % Ctrl | 0.6 % Ctrl |
| Cc1cc2c([nH]1)/C=C1\C(=O)Nc3cc(Cl)c(cc31)OCCO[C@@H](C(=O)NC1CNC1)CN(C)C2=O [Ex. 133, [7R,16a(17)Z]-N-(azetidin-3-yl)-19-chloro-2,5-dimethyl-4,16-dioxo-4,5,6,7,9,10,15,16-octahydro-1H-12,14-(ethanediylidene)dipyrrolo[3,2-i:3′,4′-l][1,4,7]dioxazacyclopentadecine-7-carboxamide] | 58 % Ctrl | 99 % Ctrl | 24 % Ctrl | 26 % Ctrl | 54 % Ctrl | 8.7 % Ctrl | 47 % Ctrl | 39 % Ctrl | 96 % Ctrl | 100 % Ctrl | 100 % Ctrl | 100 % Ctrl | 26 % Ctrl | 2.8 % Ctrl | 5.6 % Ctrl |
| Cc1cc2c([nH]1)/C=C1\C(=O)Nc3cc(Cl)c(cc31)OCCO[C@@H](C(=O)NC1CCNCC1)CN(C)C2=O [Ex. 134, [7R,16a(17)Z]-19-chloro-2,5-dimethyl-4,16-dioxo-N-(piperidin-4-yl)-4,5,6,7,9,10,15,16-octahydro-1H-12,14-(ethaneidylidene)dipyrrolo[3,2-i:3′,4′-l][1,4,7]dioxazacyclopentadecine-7-carboxamide] | 25 % Ctrl | 96 % Ctrl | 27 % Ctrl | 32 % Ctrl | 69 % Ctrl | 5.1 % Ctrl | 43 % Ctrl | 35 % Ctrl | 77 % Ctrl | 83 % Ctrl | 87 % Ctrl | 99 % Ctrl | 35 % Ctrl | 3.2 % Ctrl | 6.1 % Ctrl |
| CNC(=O)[C@H]1CN(C)C(=O)c2cc(C)[nH]c2/C=C2\C(=O)Nc3cc(Cl)c(cc32)OCCO1 [Ex. 135, [7R,16a(17)Z]-19-chloro-N,2,5-trimethyl-4,16-dioxo-4,5,6,7,9,10,15,16-octahydro-1H-12,14-(ethanediylidene)dipyrrolo[3,2-i:3′,4′-l][1,4,7]dioxazacyclopentadecine-7-carboxamide] | 48 % Ctrl | 100 % Ctrl | 33 % Ctrl | 36 % Ctrl | 75 % Ctrl | 8.5 % Ctrl | 45 % Ctrl | 37 % Ctrl | 85 % Ctrl | 82 % Ctrl | 80 % Ctrl | 98 % Ctrl | 52 % Ctrl | 11 % Ctrl | 25 % Ctrl |
| Cc1cc2c([nH]1)/C=C1\C(=O)Nc3cc(Cl)c(cc31)OCCO[C@@H](C(=O)N[C@@H]1CCNC1)CN(C)C2=O [Ex. 136, [7R,16a(17)Z]-19-chloro-2,5-dimethyl-4,16-dioxo-N-[(3R)-pyrrolidin-3-yl]-4,5,6,7,9,10,15,16-octahydro-1H-12,14-(ethanediylidene)dipyrrolo[3,2-i:3′,4′-l][1,4,7]dioxazacyclopentadecine-7-carboxamide] | 17 % Ctrl | 98 % Ctrl | 23 % Ctrl | 25 % Ctrl | 64 % Ctrl | 4.8 % Ctrl | 36 % Ctrl | 32 % Ctrl | 77 % Ctrl | 80 % Ctrl | 82 % Ctrl | 94 % Ctrl | 23 % Ctrl | 2.8 % Ctrl | 5.7 % Ctrl |
